These results are taken from US20100160443A1, “COMPOUNDS USEFUL FOR TREATING NEUROLOGICAL DISORDERS” (Yissum Research Development Company of The Hebrew …, priority 2003, published 2010).

Entries after “also recorded” stand apart in the source; their conditions may differ.

In assay [1] the test system is tactile allodynia in rats with SNL neuropathy. Put plainly: Tactile allodynia (von Frey filaments) in the spinal nerve ligation (SNL) model of neuropathic pain. In kind it is in vivo, rat. As to the method: The effect on neuropathic pain (tactile allodynia) was measured 5-6 days following operation as disclosed above. Rats responding to mechanical stimuli of 10 g or less (in the operated leg) were eligible for the study and were included in the drug administration regime.
Briefly, under ketamine-xylazine anesthesia the rat was placed in a prone position and the left paraspinal muscles were separated from spinous processes at the L4-S2 level. Part of the L6 transverse process was removed and the L4-L6 spinal nerves were identified. The L5-L6 spinal nerves were isolated and tightly ligated and cut, distal to the dorsal root ganglion and proximal to the formation of the sciatic nerve. Following complete homeostasis the wound was sutured.
A volume of 4 ml/kg (volume of injected suspension/rat body weight) was then injected to the rats. […] The three drugs and the control vehicle were administered i.p. (intraperitoneally) to rats at postoperative days 7, 14 and 21 in a double blind randomized crossover manner.
The rat was placed on a metal mesh floor covered with a transparent plastic dome, a period of acclimatization was allowed prior to testing. VFFs were applied from underneath the mesh floor to the plantar surface of the foot. Each trial consisted of repeated applications of each of the VFFs in an ascending order for 5 times, each for a period of 1 second. testing between two consecutive ascending VFFs was separated by period of 2 min. If the rat withdrew the foot at least 3 times out of 5 at a specific VFF no further ascending filaments were tested and this filament was considered as a withdrawal threshold (response). Mechanical stimulus trials with the series of ascending VFF were repeated 2 times for a given time point. The repeated measurements were averaged and taken as the paw withdrawal threshold on a given time point.
The absolute threshold and the difference in the allodynic threshold (time point minus baseline) values were tested using Mann-Whitney Test and Kruskal-Wallis Nonparametric test (two tailed) followed by Dunn's Multiple comparison test. The ED50 (median effective dose) was calculated by using Probit analysis method.
Briefly, under ketamine-xylazine anesthesia (85 mg kg^−1, i.p and 13 mg kg^−1, i.p, respectively) rats were placed in a prone position and paraspinal muscles on the left were separated from the L4-S2 spinous processes. Part of the L6 transverse process was removed and the underlying L4-L6 spinal nerves were identified. The L5 and L6 spinal nerves were isolated, tightly ligated with 5-0 silk, and cut just distal to the ligature. The ligature was approximately 8 mm distal to the corresponding dorsal root ganglion (DRG). Following complete homeostasis the wound was sutured in layers, the skin closed with Michel clips, topical bacteriostatic power was applied, and 20000 units of duplo-penicillin was injected intramuscularly (i.m.).
We used a set of 9 nylon von Frey monofilaments (VFF, Semmes-Weinstein monofilaments, Stoelting, Wood Dale, Ill., USA) to quantify foot withdrawal in response to normally innocuous tactile stimuli. […] Forces were calibrated by lowering filaments onto the pan of an electronic balance until they just bent.
Rats were placed on a raised wire mesh screen (gaps 4 mm×4 mm), which allowed access to the plantar surface of the hindpaw from below. They were covered with a transparent plastic dome, 13 cm high, which prevented rearing on the hindlimbs. A period of 20 min was allowed for acclimation prior to sensory testing. The mid-plantar hindpaw skin just caudal to the footpads, half way between medial and lateral edges of the foot, was subjected to a series of 5 brief probes, spaced at about 1 s. Each such stimulus was sufficient to just bend the filament. Testing began with the filament with the weakest initial bending force (0.6 g). […] Response threshold was the bending force of the first monofilament in the series that evoked a criterion ≧⅗ responses.

Assay [2] has as its system maximal electroshock (MES) test. As to conditions: rat, in vivo, po; cited from earlier work.
Assay [3] deals with neuropathic pain due to spinal cord injury. The following applies: double-blind placebo-controlled trial; cited from earlier work.

`CC(C)C(C(N)=O)C(C)C` [DID, diisopropylacetamide]: the “antiallodynic effect / effectiveness for treating neuropathic pain” value in assay [1] (rat, in vivo) is “effective for treating neuropathic pain”. Besides, in assay [1] (rat, in vivo, ip), the “ED50 (tactile allodynia)” value worked out at 58 mg/kg, the SNL-ED50 stood at 58 mg/kg, the “dose dependence of the antiallodynic effect” value is recorded as “dose-related antiallodynic activity” and the “lowest effective dose (significant increase of the allodynic threshold vs vehicle)” value amounted to 20 mg/kg. In assay [1] (rat, in vivo, ip), the “rats with no response to 15 g or above VFF at the highest dose tested” value came to 63% and the “time of maximal effect after administration” value worked out at 120 min. The MES-ED50 in assay [2] was 51 mg/kg.

Regarding `CCCC(CCC)C(=O)O` [VPA, Valproic acid, reference compound], the “rats relieved from tactile allodynia at the highest dose tested” value in assay [1] (VPA 400 mg kg^−1 i.p.) is listed as 88%. Besides, in assay [1] (i.p., rat), the “dose dependence of the antiallodynic effect” value is “in a dose dependent manner; also recorded: in a dose-dependent manner”, the “lowest effective dose (significant increase of the allodynic threshold vs vehicle)” value came out at 300 mg/kg and the “time of maximal effect after administration” value is 60 min. For the same compound, the “ED50 (tactile allodynia)” value in assay [1] (i.p., rat, 60 min after dosing) is 269 mg/kg. The SNL-ED50 in assay [1] (i.p., rat, 60 min post injection, DID at 120 min) worked out at 269 mg/kg. The ED50 in assay [1] (ip, 1 h, i.p., rat, 60 min after administration, protected = threshold of at least 15 g, read-out: ED50 (tactile allodynia threshold)) was determined as 269 mg/kg. Also, the “pain relief versus placebo” value in assay [3] is “no difference between VPA and placebo in relieving pain”.
